Test results from patent publication US11098063B2, “Diazabicyclic substituted imidazopyrimidines and their use for the treatment of breathing disorders” (Bayer Aktiengesellschaft, priority 2017, dated 2021).

Tests used:
[1] = target: human TASK-1 (Homo sapiens (Human), UniProt O14649); assay: Inhibition of recombinant TASK-1 in stably transfected CHO cells (voltage-sensitive dye, KCl depolarization); format: cell-based; details: depolarization by 40 mM potassium chloride
Method: (§1) B-2. Inhibition of Recombinant TASK-1 and TASK-3 In Vitro
(§2) The investigations on the inhibition of the recombinant TASK-1 and TASK-3 channels were conducted using stably transfected CHO cells. The compounds according to the invention were tested in this case by application of 40 mM potassium chloride in the presence of a voltage-sensitive dye according to the method described in detail in the following references [Whiteaker et al., Validation of FLIPR membrane potential dye for high-throughput screening of potassium channel modulators, J. Biomol. Screen. 6 (5), 305-312 (2001); Molecular Devices FLIPR Application Note: Measuring membrane potential using the FLIPR® membrane potential assay kit on Fluorometric Imaging Plate Reader (FLIPR®) systems, http://www.moleculardevices.com/reagents-supplies/assay-kits/ion-channels/flipr-membrane-potential-assay-kits]. The activity of the test substances was determined as their ability to inhibit a depolarization induced in the recombinant cells by 40 mM potassium chloride. The concentration which can block half of this depolarization is referred to as IC50.

[2] = target: human TASK-3 (Homo sapiens (Human), UniProt Q9NPC2); assay: Inhibition of recombinant TASK-3 in stably transfected CHO cells (voltage-sensitive dye, KCl depolarization); format: cell-based; details: depolarization by 40 mM potassium chloride
Method: as §1, §2

Sequence of human TASK-3 (Q9NPC2 whole entry): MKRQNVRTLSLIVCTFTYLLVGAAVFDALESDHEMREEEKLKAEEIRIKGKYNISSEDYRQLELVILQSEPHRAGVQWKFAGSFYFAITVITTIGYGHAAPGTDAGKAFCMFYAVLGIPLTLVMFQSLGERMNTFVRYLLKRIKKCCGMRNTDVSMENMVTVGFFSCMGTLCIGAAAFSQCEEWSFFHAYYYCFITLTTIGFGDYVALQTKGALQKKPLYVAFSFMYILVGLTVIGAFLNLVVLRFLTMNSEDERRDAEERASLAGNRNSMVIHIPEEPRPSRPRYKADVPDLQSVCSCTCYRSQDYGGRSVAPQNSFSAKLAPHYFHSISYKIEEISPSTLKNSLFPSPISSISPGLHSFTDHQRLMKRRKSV
Sequence of human TASK-1 (O14649 whole entry): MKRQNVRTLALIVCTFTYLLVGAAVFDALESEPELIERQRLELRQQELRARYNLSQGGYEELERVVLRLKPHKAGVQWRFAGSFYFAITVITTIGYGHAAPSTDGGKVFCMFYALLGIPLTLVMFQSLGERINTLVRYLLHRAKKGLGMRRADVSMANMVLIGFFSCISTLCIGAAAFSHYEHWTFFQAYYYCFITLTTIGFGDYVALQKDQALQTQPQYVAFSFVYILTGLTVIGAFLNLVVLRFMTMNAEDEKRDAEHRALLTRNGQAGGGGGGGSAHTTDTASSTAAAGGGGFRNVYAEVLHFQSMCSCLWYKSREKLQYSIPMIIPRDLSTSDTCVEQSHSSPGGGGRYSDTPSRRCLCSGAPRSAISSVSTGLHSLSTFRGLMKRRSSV

Row | Structure (SMILES) | IC50 [1] [nM] | IC50 [2] [nM]
1 | CC(C)c1ccc(-c2nc3ncccn3c2CN2CC3CCC2CN3C(=O)OC(C)(C)C)cc1 (racemic) [Example 7, tert-Butyl 5-{[2-(4-isopropylphenyl)imidazo[1,2-a]pyrimidine-3-yl]methyl}-2,5-diazabicyclo[2.2.2]octane-2-carboxylate] | 8600 | 570
2 | CC(c1c(-c2ccc(Cl)cc2)nc2ncccn12)N1CC2CCC(C1)N2C(=O)OC(C)(C)C (racemic) [Example 10, tert-Butyl 3-{1-[2-(4-chlorophenyl)imidazo[1,2-a]pyrimidin-3-yl]ethyl}-3,8-diazabicyclo[3.2.1]octane-8-carboxylate] | 2200 | 130
3 | CC(C)(C)OC(=O)N1CC2CCC1CN2Cc1c(-c2ccc(Cl)cc2)nc2ncccn12 (single isomer, unassigned) [Example 4, tert-Butyl 5-{[2-(4-chlorophenyl)imidazo[1,2-a]pyrimidin-3-yl]methyl}-2,5-diazabicyclo[2.2.2]octane-2-carboxylate] | 470 | 97
4 | CC(C)(C)OC(=O)N1CC2CCC1CN2Cc1c(-c2ccc(Cl)cc2)nc2ncccn12 (single isomer, unassigned) [Example 5, tert-Butyl 5-{[2-(4-chlorophenyl)imidazo[1,2-a]pyrimidin-3-yl]methyl}-2,5-diazabicyclo[2.2.2]octane-2-carboxylate] | 17000 | 1300
5 | COc1ccc(Cl)c(C(=O)N2CC3CCC2CN3Cc2c(-c3ccc(Cl)cc3)nc3ncccn23)n1 (single isomer, unassigned) [Example 23, (3-Chloro-6-methoxypyridin-2-yl)(5-{[2-(4-chlorophenyl)imidazo[1,2-a]pyrimidin-3-yl]methyl}-2,5-diazabicyclo[2.2.2]oct-2-yl)methanone] | 1600 | 100
6 | COc1ccc(F)c(C(=O)N2CC3CCC2CN3Cc2c(-c3ccc(Cl)cc3)nc3ncccn23)n1 (single isomer, unassigned) [Example 24, (5-{[2-(4-Chlorophenyl)imidazo[1,2-a]pyrimidin-3-yl]methyl}-2,5-diazabicyclo[2.2.2]oct-2-yl)(3-fluoro-6-methoxypyridin-2-yl)methanone] | 410 | 102
7 | COc1ccc(C)c(C(=O)N2CC3CCC2CN3Cc2c(-c3ccc(Cl)cc3)nc3ncccn23)n1 (single isomer, unassigned) [Example 25, (5-{[2-(4-Chlorophenyl)imidazo[1,2-a]pyrimidin-3-yl]methyl}-2,5-diazabicyclo[2.2.2]oct-2-yl)(6-methoxy-3-methylpyridin-2-yl)methanone] | 1100 | 71
8 | CC(C)(C)OC(=O)N1C2COCC1CN(Cc1c(-c3ccc(Cl)cc3)nc3ncccn13)C2 [Example 1, tert-Butyl 7-{[2-(4-chlorophenyl)imidazo[1,2-a]pyrimidin-3-yl]methyl}-3-oxa-7,9-diazabicyclo[3.3.1]nonane-9-carboxylate] | 1700 | 400
9 | CC(C)(C)OC(=O)N1C2CCC1CN(Cc1c(-c3ccc(Cl)cc3)nc3ncccn13)C2 [Example 6, tert-Butyl 3-{[2-(4-chlorophenyl)imidazo[1,2-a]pyrimidin-3-yl]methyl}-3,8-diazabicyclo[3.2.1]octane-8-carboxylate] | 1400 | 41
10 | CC(C)(C)OC(=O)N1CC2CCC1CN2Cc1c(-c2ccc(Br)cc2)nc2ncccn12 (centres unmarked) [Example 11] | 2500 | 16
11 | CC(C)(C)OC(=O)N1C2CCC1CN(Cc1c(-c3ccc(Br)cc3)nc3ncccn13)C2 [Example 12] | 220 | 13
12 | COc1cccc(C(=O)N2C3COCC2CN(Cc2c(-c4ccc(Cl)cc4)nc4ncccn24)C3)n1 [Example 13, (7-{[2-(4-Chlorophenyl)imidazo[1,2-a]pyrimidin-3-yl]methyl}-3-oxa-7,9-diazabicyclo[3.3.1]non-9-yl)(6-methoxypyridin-2-yl)methanone] | 1500 | 33
13 | COc1ccc(Cl)c(C(=O)N2C3COCC2CN(Cc2c(-c4ccc(Cl)cc4)nc4ncccn24)C3)n1 [Example 14, (3-Chloro-6-methoxypyridin-2-yl)(7-{[2-(4-chlorophenyl)imidazo[1,2-a]pyrimidin-3-yl]methyl}-3-oxa-7,9-diazabicyclo[3.3.1]non-9-yl)methanone] | 7600 | 170
14 | COc1ccc(F)c(C(=O)N2C3COCC2CN(Cc2c(-c4ccc(Cl)cc4)nc4ncccn24)C3)n1 [Example 15, (7-{[2-(4-Chlorophenyl)imidazo[1,2-a]pyrimidin-3-yl]methyl}-3-oxa-7,9-diazabicyclo[3.3.1]non-9-yl)(3-fluoro-6-methoxypyridin-2-yl)methanone] | 1100 | 19
15 | CSc1cccc(C(=O)N2C3COCC2CN(Cc2c(-c4ccc(Cl)cc4)nc4ncccn24)C3)n1 [Example 16, (7-{[2-(4-Chlorophenyl)imidazo[1,2-a]pyrimidin-3-yl]methyl}-3-oxa-7,9-diazabicyclo[3.3.1]non-9-yl)[6-(methylsulfanyl)pyridin-2-yl]methanone] | 670 | 12
16 | O=C(C1CCCC1)N1C2COCC1CN(Cc1c(-c3ccc(Cl)cc3)nc3ncccn13)C2 [Example 17, (7-{[2-(4-Chlorophenyl)imidazo[1,2-a]pyrimidin-3-yl]methyl}-3-oxa-7,9-diazabicyclo[3.3.1]non-9-yl)(cyclopentyl)methanone] | 1200 | 33
17 | COc1ccc(F)c(C(=O)N2C3COCC2CN(Cc2c(-c4ccc(C(C)C)cc4)nc4ncccn24)C3)n1 [Example 18, (3-Fluoro-6-methoxypyridin-2-yl)(7-{[2-(4-isopropylphenyl)imidazo[1,2-a]pyrimidin-3-yl]methyl}-3-oxa-7,9-diazabicyclo[3.3.1]non-9-yl)methanone] | 910 | 8.6
18 | COc1cccc(C(=O)N2C3CCC2CN(Cc2c(-c4ccc(Cl)cc4)nc4ncccn24)C3)n1 [Example 20, (3-{[2-(4-Chlorophenyl)imidazo[1,2-a]pyrimidin-3-yl]methyl}-3,8-diazabicyclo[3.2.1]oct-8-yl)(6-methoxypyridin-2-yl)methanone] | 160 | 38
19 | COc1ccc(F)c(C(=O)N2C3CCC2CN(Cc2c(-c4ccc(Cl)cc4)nc4ncccn24)C3)n1 [Example 22, (3-{[2-(4-Chlorophenyl)imidazo[1,2-a]pyrimidin-3-yl]methyl}-3,8-diazabicyclo[3.2.1]oct-8-yl)(3-fluoro-6-methoxypyridin-2-yl)methanone] | 340 | 5.2

Row | Structure (SMILES) | IC50 [1] [nM] | IC50 [2] [nM]
20 | O=C(c1ccccc1F)N1C2COCC1CN(Cc1c(-c3ccc(Cl)cc3)nc3ncccn13)C2 [Example 30] | 3500 | 85
21 | COc1cccc(C(=O)N2C3COCC2CN(Cc2c(-c4ccc(Cl)cc4)nc4ncccn24)C3)c1 [Example 31] | 7100 | 140
22 | O=C(c1ccccc1F)N1C2CCC1CN(Cc1c(-c3ccc(Cl)cc3)nc3ncccn13)C2 [Example 32] | 370 | 29
23 | CSc1cccc(C(=O)N2C3CCC2CN(Cc2c(-c4ccc(Cl)cc4)nc4ncccn24)C3)n1 [Example 33] | 190 | 130
24 | O=C(C1CCCC1)N1C2CCC1CN(Cc1c(-c3ccc(Cl)cc3)nc3ncccn13)C2 [Example 34] | 76 | 29
25 | COc1cccc(C(=O)N2C3CCC2CN(Cc2c(-c4ccc(Cl)cc4)nc4ncccn24)C3)c1 [Example 36] | 310 | 80
26 | O=C(C1CCCC1)N1CC2CCC1CN2Cc1c(-c2ccc(Cl)cc2)nc2ncccn12 (centres unmarked) [Example 37] | 1500 | 140
27 | COc1cccc(C(=O)N2CC3CCC2CN3Cc2c(-c3ccc(Cl)cc3)nc3ncccn23)c1 (centres unmarked) [Example 38] | 9600 | 320
28 | O=C(c1ccccc1F)N1CC2CCC1CN2Cc1c(-c2ccc(Cl)cc2)nc2ncccn12 (centres unmarked) [Example 39] | 1400 | 160
29 | COc1cccc(C(=O)N2CC3CCC2CN3Cc2c(-c3ccc(Cl)cc3)nc3ncccn23)n1 (centres unmarked) [Example 40] | 5700 | 210
30 | O=C(c1ccccc1F)N1CC2CCC1CN2Cc1c(-c2ccc(Cl)cc2)nc2ncccn12 (centres unmarked) [Example 42] | 1000 | 340
31 | COc1cccc(C(=O)N2CC3CCC2CN3Cc2c(-c3ccc(Cl)cc3)nc3ncccn23)c1 (centres unmarked) [Example 43] | 1000 | 320
32 | COc1cccc(C(=O)N2CC3CCC2CN3Cc2c(-c3ccc(Cl)cc3)nc3ncccn23)n1 (centres unmarked) [Example 44] | 1000 | 190
33 | COc1ccc(Cl)c(C(=O)N2CC3CCC2CN3Cc2c(-c3ccc(Cl)cc3)nc3ncccn23)n1 (centres unmarked) [Example 45] | 1800 | 120
34 | O=C(c1ncoc1C1CC1)N1C2COCC1CN(Cc1c(-c3ccc(Cl)cc3)nc3ncccn13)C2 [Example 46] | 7600 | 140
35 | O=C(c1coc(C2CC2)n1)N1C2CCC1CN(Cc1c(-c3ccc(Cl)cc3)nc3ncccn13)C2 [Example 47] | 2800 | 110
36 | Cc1ocnc1C(=O)N1C2CCC1CN(Cc1c(-c3ccc(Cl)cc3)nc3ncccn13)C2 [Example 48] | 400 | 23
37 | CC(C)c1ocnc1C(=O)N1C2CCC1CN(Cc1c(-c3ccc(Cl)cc3)nc3ncccn13)C2 [Example 49] | 260 | 12
